{
  "source": "patent US10323013B2",
  "about": "“Inhibitors of the IRE-1/XBP-1 pathway and methods of using thereof” (H. LEE MOFFITT CANCER CENTER AND RESEARCH INSTITUTE, INC., priority 2013, dated 2019)",
  "key": {"XBP-1s expression": {"tested_on": "XBP-1s expression", "experiment": "Inhibition of XBP-1s expression in LPS-stimulated mouse B cells (immunoblots)", "type": "cell-based", "settings": "for inhibition of XBP-1s expression (in words): LPS 48 h, then inhibitor 20 μM for 24 h (Example 3 prints 20 mM); for inhibition of XBP-1 expression (in words): inhibitor 50 μM (b479 prints 50 mM), also Eμ-TCL1 CLL and WaC3 cells", "protocol": "The protein concentrations of the supernatants were determined by BCA assay (Pierce). […] Proteins were transferred to nitrocellulose membranes, blocked in 5% milk (wt/vol in PBS), and immunoblotted with the indicated antibodies and appropriate horseradish peroxidase-conjugated secondary antibodies. Following multiple washes in PBS, the blots were developed using Western Lighting Chemiluminescence Reagent (Perkin-Elmer).\nProtein concentrations were determined by BCA assays (Pierce). […] Proteins were transferred to nitrocellulose membranes, blocked in 5% non-fat milk (wt/vol in PBS), and immunoblotted with indicated primary antibodies and appropriate horseradish peroxidase-conjugated secondary antibodies. Immunoblots were developed using Western Lighting Chemiluminescence Reagent (Perkin-Elmer)."}, "[1]": {"tested_on": "Eμ-TCL1 mice with high CLL burden", "type": "in vivo", "settings": "A-I06 60 mg/kg i.p.", "protocol": "Older Eμ-TCL1 mice (age >8 months) with high CLL burden in the peripheral blood were identified by examining the percentage of CLL cells in PBMCs. These mice then received intraperitoneal injections with A-I06 (60 mg/kg) dissolved in Cremophor® ELP (vehicle, Sigma). The progression of CLL was monitored by flow cytofluorometry."}, "primary human CLL cells": {"tested_on": "primary human CLL cells", "experiment": "Cell proliferation XTT assay, primary human CLL cells", "type": "cell-based", "settings": "primary human CLL cells, 50 μM, 3 days", "procedure": "(§1) Eμ-TCL1, MEC1, MEC2, WaC3, or primary human CLL cells were grown in 96-well cell culture plates overnight and then treated with fresh phenol red-free culture medium containing STF-083010 (50 μM), A-I06 (50 μM), A-I07 (50 μM) or fludarabine (30 μM). […] Briefly, 50 μl XTT labeling reagent was combined with 100 μl electron-coupling reagent, and the mixture was applied to each well of the 96-well plates. The test was based on cleavage of the yellow tetrazolium salt XTT by mitochondrial dehydrogenases of the metabolic active cells to form the orange formazan compound, which can be spectrophotometrically quantified at 492 nm using a BioTek microplate reader."}, "recombinant hIRE-1": {"target": "recombinant hIRE-1 (Homo sapiens (Human), UniProt O75460)", "sequence (O75460 547-977)": "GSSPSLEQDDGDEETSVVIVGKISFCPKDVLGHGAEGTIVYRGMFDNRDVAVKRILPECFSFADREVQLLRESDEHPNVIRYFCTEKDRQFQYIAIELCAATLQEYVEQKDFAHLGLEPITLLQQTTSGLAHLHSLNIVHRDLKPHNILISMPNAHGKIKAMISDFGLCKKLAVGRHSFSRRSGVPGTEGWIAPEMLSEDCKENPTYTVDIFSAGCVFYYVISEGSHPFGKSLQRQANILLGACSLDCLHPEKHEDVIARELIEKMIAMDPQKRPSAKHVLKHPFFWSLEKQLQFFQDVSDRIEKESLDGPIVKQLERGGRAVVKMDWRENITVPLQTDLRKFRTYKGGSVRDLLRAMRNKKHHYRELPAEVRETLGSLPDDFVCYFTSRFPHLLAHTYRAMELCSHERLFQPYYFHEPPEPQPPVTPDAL", "experiment": "In vitro IRE-1 RNase FRET-suppression assay", "type": "biochemical", "protocol": "Fluorescence was read at various time points using a Biotek Synergy H1 plate reader with excitation and emission at 620 nm and 680 nm, respectively. […] All fluorescence readings were corrected using background values from wells containing only 120 μL of 50 nM XBP-1 RNA.\nFluorescence was read at various time points using a Biotek Synergy H1 plate reader with excitation and emission at 620 nm and 680 nm, respectively. […] All fluorescence readings were corrected using background values from wells containing only 120 mL of 50 nM XBP-1 RNA."}, "MEC2 cells": {"tested_on": "MEC2 cells", "experiment": "Cell proliferation XTT assay, MEC2", "type": "cell-based, human", "settings": "MEC2, 50 μM, first 48 h", "procedure": "as §1"}, "Eμ-TCL1 CLL cells [2]": {"tested_on": "Eμ-TCL1 CLL cells", "experiment": "Annexin V/DAPI flow cytofluorometry of cultured Eμ-TCL1 CLL cells", "type": "cell-based, mouse", "settings": "50 μM or 100 μM for 24 h", "procedure": "PBMCs were non-lethally obtained from mice following the submandibular bleed and RBC lysis (Qiagen). Nonspecific staining was first blocked for 30 min at 4° C. with 300 μl FBS per 1.0×10^6 cells. Cell surface staining was accomplished by 30-min incubation at 4° C. with 1 μl per 1.0×10^6 cells of the following anti-mouse antibodies: B220-Alexa488, CD19-APC-Cy7 (BD Pharmingen), IgM-Alexa568 (Invitrogen), CD5-APC (eBioscience) and CD138-PE (BD Pharmingen). Viability staining was accomplished using DAPI exclusion (10 μg/ml; 200 μl/1×10^6 cells) during acquisition. Apoptotic cells were detected by Annexin V-PE staining (BD Pharmingen). Acquisition of B-cell and CLL cell populations was performed on a LSRII cytometer (BD Biosciences) harboring a custom configuration for the H. Lee Moffitt Cancer Center & Research Institute, having multiple laser beams and detectors for excitation of various fluorophores and wide emission spectrum detection. Mid-range Spherotech FL1 fluorescent rainbow beads (BD Biosciences) were used to maintain consistent gains for all parameters across time points. Analysis of cytometry data was achieved using FlowJo software version 7.6.1 (Tree Star Inc.)."}, "MEC1 cells": {"tested_on": "MEC1 cells", "experiment": "Cell proliferation XTT assay, MEC1", "type": "cell-based, human", "settings": "MEC1, 50 μM, first 48 h", "procedure": "as §1"}, "WaC3 cells": {"tested_on": "WaC3 cells", "experiment": "Cell proliferation XTT assay, WaC3", "type": "cell-based, human", "settings": "for growth response (in words): WaC3, 50 μM, course of 4 days", "procedure": "as §1"}, "Eμ-TCL1 CLL cells [3]": {"tested_on": "Eμ-TCL1 CLL cells", "experiment": "Cell proliferation XTT assay, Eμ-TCL1 CLL cells", "type": "cell-based, mouse", "settings": "50 μM, after 3 days", "procedure": "as §1"}, "[4]": {"experiment": "Degradation (chemical stability) studies by HPLC/LCMS", "type": "physicochemical", "settings": "over 12 hours, rt", "procedure": "The degradation of analog 24 was plotted as a function of time upon exposure to FRET-suppression assay buffer at rt. Aliquots were partitioned with MeOH and injected onto LCMS (UV monitored at 320 nm) and peaks integrated relative to internal standard.\nA 20 mM stock solution of B-I09 in DMSO was diluted to 0.5 mM in FRET assay buffer (20 mM HEPES, pH 7.5, 50 mM KOAc, 0.5 mM MgCl2, 3 mM DTT, 0.4% PEG) or cell culture media (RPMI supplemented with 10% fetal bovine serum). The FRET assay buffer and cell culture media solutions were incubated at room temperature and 37° C., respectively. At various time points, a 50 μL aliquot of each solution was added to 50 μL of methanol and the mixture analyzed by analytical reverse-phase HPLC (C18 4 mm×150 mm column, 1 mL/min flow rate) with acetonitrile/water (0.1% formic acid) as eluent. Absorbance was read at 320 nm and the degradation product (aldehyde) was identified by LCMS and co-injection with pure synthetic sample. Degradation studies were carried out in duplicate and data points reported as the mean of two values."}, "XBP-1 mRNA splicing": {"tested_on": "XBP-1 mRNA splicing", "experiment": "XBP-1 mRNA splicing by RT-PCR", "type": "cell-based", "settings": "human WaC3 CLL cells, 24 h", "description": "Total RNA was isolated using TRIzol reagent (Invitrogen). Complementary DNA was synthesized from RNA using Superscript II reverse transcriptase (Invitrogen)."}, "[5]": {"experiment": "Aqueous solubility (stated in words)", "type": "physicochemical"}, "[6]": {"experiment": "STF-083010 stability studies by RP-HPLC", "type": "physicochemical", "procedure": "STF-083010 stability studies were performed using analytical reverse-phase high pressure liquid chromatography (RP-HPLC) with a C18 column (4 mm×150 mm) and a 10-90% linear gradient of acetonitrile in water (containing 0.1% formic acid) as eluent over 20 minutes (1 ml/min flow rate). Compounds were detected at λ=254 nm. Crystalline STF-083010 was analyzed on a standard Bruker X8 Apex2 CCD-based X-ray diffractometer, and the solid-state structure was solved and refined with the Bruker SHELXTL (version 6.12) software package. Diffraction data (excluding structure factors) for STF-083010 have been deposited with the Cambridge Crystallographic Data Centre as supplementary CCDC publication number 850879."}, "[7]": {"settings": "text values of Example 3, unit printed as mM, read-out: IC50 in FRET-suppression assay"}},
  "note": "Where “and” joins values, the source holds several entries; their conditions need not be identical. Equal entries are not always repeated. Where two headings read alike, the source gives them in different places.",
  "data": [
    {"compound": "O=Cc1c(O)ccc2ccccc12", "note": "[A-I06, 2-hydroxynaphthaldehyde]", "values": [
      {"measurement": "inhibition of XBP-1s expression (in words)", "setting": "XBP-1s expression", "value": "requires a higher concentration to achieve complete inhibition"},
      {"measurement": "inhibition of XBP-1 expression (in words)", "setting": "XBP-1s expression", "value": "can suppress the expression of XBP-1"},
      {"measurement": "inhibition of XBP-1 expression (in words)", "setting": "XBP-1s expression; listed as 2", "value": "strong inhibition"},
      {"measurement": "apoptosis of CD5+/B220+ CLL cells in treated mice (in words)", "setting": "[1]", "value": "increase of Annexin V+ apoptotic CD5+/B220+CLL cells"},
      {"measurement": "apoptosis of CD5−/B220+ B cells in treated mice (in words)", "setting": "[1]", "value": "does not induce CD5−/B220+ B cells to undergo apoptosis"},
      {"measurement": "CLL burden (in words)", "setting": "[1]; Day 0, 1, 12, 13", "value": "reduced CLL burden"},
      {"measurement": "cytotoxic effect (in words)", "setting": "primary human CLL cells", "value": "significant cytotoxic effect"},
      {"measurement": "IRE-1 RNase inhibitory activity in FRET-suppression assay (in words)", "setting": "recombinant hIRE-1", "value": "weaker activity"},
      {"measurement": "IC50", "setting": "recombinant hIRE-1; [7]", "value": 9.73, "unit": "mM"},
      {"measurement": "growth inhibition", "setting": "MEC2 cells", "value": "~20", "unit": "%"},
      {"measurement": "apoptosis (in words)", "setting": "Eμ-TCL1 CLL cells [2]", "value": "Increased apoptosis"},
      {"measurement": "growth inhibition", "setting": "MEC1 cells", "value": "~20", "unit": "%"},
      {"measurement": "growth response (in words)", "setting": "WaC3 cells", "value": "gradually decreased growth"},
      {"measurement": "GI50", "setting": "WaC3 cells; read-out: GI50 (50% growth inhibition concentration), WaC3 cells, 48 h, XTT", "value": "~50", "unit": "µM"},
      {"measurement": "growth inhibition", "setting": "Eμ-TCL1 CLL cells [3]", "value": "~70", "unit": "%"}
    ]},
    {"compound": "O=Cc1c(O)ccc2ccccc12", "note": "[A-I07]", "values": [
      {"measurement": "IRE-1 RNase inhibitory activity in FRET-suppression assay (in words)", "setting": "recombinant hIRE-1", "value": "no appreciable inhibition at 20 mM"}
    ]},
    {"compound": "O=S(=O)(NCc1c(O)ccc2ccccc12)c1cccs1", "note": "[B-A05]", "values": [
      {"measurement": "inhibition of XBP-1 expression (in words)", "setting": "XBP-1s expression", "value": "did not significantly alter XBP-1 expression"}
    ]},
    {"compound": "Cc1cc(=O)oc2c(C=O)c(O)ccc12", "note": "[Compound 4μ8C, 7-hydroxy-4-methyl-2-oxo-2H-chromene-8-carbaldehyde]", "values": [
      {"measurement": "inhibition of XBP-1s expression (in words)", "setting": "XBP-1s expression", "value": "strong inhibition"},
      {"measurement": "IC50", "setting": "recombinant hIRE-1; 5 nM hIRE-1, 50 nM XBP-1 RNA, read-out: IC50 in FRET-suppression assay", "value": "0.000155 mM and 0.000206 mM"}
    ]},
    {"compound": "C=CCOC(=O)N1CCc2c(c(=O)oc3c(C=O)c(O)ccc23)C1", "note": "[Compound 21b, Allyl 7-formyl-8-hydroxy-5-oxo-4,5-dihydro-1H-chromeno[3,4-c]pyridine-3(2H)-carboxylate]", "values": [
      {"measurement": "IC50", "setting": "XBP-1s expression; Mus musculus, B-cell, LPS-stimulated B cells, 24 h, immunoblots, densitometry, approximate, read-out: IC50 for suppressing XBP-1s expression", "value": "~5.1", "unit": "µM"}
    ]},
    {"compound": "C=CCOC(=O)N1CCc2c(c(=O)oc3c(C4OCCCO4)c(O)ccc23)C1", "note": "[Compound 24, allyl 7-(1,3-dioxan-2-yl)-8-hydroxy-5-oxo-4,5-dihydro-1H-chromeno[3,4-c]pyridine-3(2H)-carboxylate]", "values": [
      {"measurement": "decomposition of the 1,3-dioxane moiety in assay buffer (in words)", "setting": "[4]", "value": "no significant decomposition"},
      {"measurement": "inhibition of splicing of XBP-1 mRNA (in words)", "setting": "XBP-1 mRNA splicing", "value": "highly effective"}
    ]},
    {"compound": "C=CCOC(=O)N1CCc2c(c(=O)oc3c(C=O)c(OCc4ccccc4)ccc23)C1", "note": "[Compound 27, allyl 7-formyl-8-benzyloxy-5-oxo-4,5-dihydro-1H-chromeno[3,4-c]pyridine-3(2H)-carboxylate]", "values": [
      {"measurement": "IRE-1 RNase inhibitory activity in FRET-suppression assay (in words)", "setting": "recombinant hIRE-1", "value": "complete loss of potency below 20 mM"},
      {"measurement": "IC50", "setting": "recombinant hIRE-1; In vitro IRE-1 RNase inhibition by analogs of 21b, FRET-suppression assay, read-out: IC50", "value": "> 0.02", "unit": "mM"}
    ]},
    {"compound": "N=C(N)N1CCc2c(c(=O)oc3c(C=O)c(O)ccc23)C1", "note": "[Compound 34, 7-Formyl-8-hydroxy-5-oxo-4,5-dihydro-1H-chromeno[3,4-c]pyridine-3(2H)-carboximidamide]", "values": [
      {"measurement": "inhibition of XBP-1s expression (in words)", "setting": "XBP-1s expression", "value": "did not effectively inhibit XBP-1s expression"},
      {"measurement": "solubility (in words)", "setting": "[5]", "value": "solubility decreased"}
    ]},
    {"compound": "O=S(=O)(N=Cc1c(O)ccc2ccccc12)c1cccs1", "note": "[STF-083010]", "values": [
      {"measurement": "inhibition of XBP-1 expression (in words)", "setting": "XBP-1s expression", "value": "can suppress the expression of XBP-1"},
      {"measurement": "stability in 1:1 DMSO:water mixture (in words)", "setting": "[6]; brief exposure", "value": "complete decomposition"},
      {"measurement": "stability of DMSO stock solutions (in words)", "setting": "[6]; repeated freeze-thaw cycles", "value": "readily hydrolyzed into precursors A-I06 and A-I07"},
      {"measurement": "cytotoxic effect (in words)", "setting": "primary human CLL cells", "value": "significant cytotoxic effect"},
      {"measurement": "IC50", "setting": "recombinant hIRE-1; [7]", "value": 9.94, "unit": "mM"},
      {"measurement": "growth inhibition", "setting": "MEC2 cells", "value": "~20", "unit": "%"},
      {"measurement": "growth inhibition", "setting": "MEC1 cells", "value": "~20", "unit": "%"},
      {"measurement": "growth response (in words)", "setting": "WaC3 cells", "value": "gradually decreased growth"},
      {"measurement": "growth inhibition", "setting": "Eμ-TCL1 CLL cells [3]", "value": "~70", "unit": "%"}
    ]}
  ]
}
